Reference: patent US9359373B1, “Lipophilic N-substituted norcantharimide derivatives and uses thereof” (priority 2014, dated 2016)
Read-outs that look alike come from different tables or passages of the source.

Tests used:
BFTC905 = assay: MTT cell viability, BFTC905; type: cell-based, human; settings: Homo sapiens, BFTC-905, 48 hours, Mean ± SD, read-out: Growth Inhibition IC50 BFTC905
Protocol: (§1) Cell lines used in the present disclosure include human liver carcinonoma cell line HepG2, human bladder carcinoma cell line BFTC905, human colon carcinoma cell lines HT29 and SW480, and human leukemia cell lines HL60 and Jurkat T, and mouse lymphocytic leukemia cell line L1210. Each cell lines were cultured and maintained in Dulbecco's modified Eagle media (DMEM) or RPMI 1640 medium supplemented with 10% heat inactivated fetal bovine serum (FBS), 1% penicillin/streptomycin, in 5% CO2195% air at 37° C.
(§2) The absorbance of the solution at 540 nm was measured by spectrophotometer. The IC50 values were defined as the drug concentration that inhibit 50% cell growth by setting the viability of untreated cells as 100%. Values were represented as the mean±SD from at least 3 independent experiments.
(§3) Effects of the compounds of formula (I) of this disclosure, specifically, NOC15 and NC 15, on HepG2 cells (liver carcinoma), BFTC905 (bladder carcinoma), HT29 (colon carcinoma), SW480 (colon carcinoma) and HL60 (leukemia) were assessed by cell viability analysis in accordance with procedures described above, in which compound 2, and other known anti-cancer agents including 5-FU, cisplatin and doxorubicin were respectively used as positive controls.

HL60 = assay: MTT cell viability, HL60; type: cell-based, human
Protocol: as §1, §2, §3

HepG2 cells = assay: Cell cycle distribution by flow cytometry (PI), HepG2; type: cell-based, human; settings: 48 hours, FIG. 2
Protocol: (§4) Cultured cells with or without pre-treatment of the compounds of this invention (i.e., norcantharidin, NOC15, or NC15, 10-60 μM for 48 hours) were harvested from the cultured media and fixed by incuating with 75% iced cold ehtanol and kept at −20° C. until analysis. The fixed cells were then washed with PBS, and treated with […] (200 μg/mL, 500 μL) for about 1.5 hour at 37° C. Precipitated cells were collected by centrifugation and re-suspended in a buffer solution containing propidium iodine (PI) (40 μg/ml) and incubated in the dark for 20 min at 20-25° C. before being subject to flow cytometry analysis, where cell numbers at respective cell cycles were determined.
HepG2 cells were treated with 10-60 μM of the test compounds for 48 hours, then cell cycle distribution and apoptosis analysis was analyzed by flow cytometry, with the subG1 phase being stained with propidium idoine (PI). Results are illustrated in FIGS. 2 and 3.

[1] = test system: human leukemia cells (Jurkat T cells); assay: Cell viability (CCK-8), PMAI activated leukemia Jurkat T cells model; type: cell-based; settings: 24 hours (NC15: 24 and 48 hours), FIG. 4, FIG. 6
Protocol: The cell viability assays were performed in 96-well plates. The 100 μl of cell suspensions (NHL or Jurkat T cells, 5×10^3 cells/well, serum-free medium) were inoculated in the wells and the plates were pre-incubated in the incubator for 24 hours (pre-incubated for 22 hours and stimulated with PMA 5 ng/ml plus ionomycin 250 ng/ml for 2 hours in PMAI-treated groups). Then, various concentrations of norcantharidin (0, 2, 4, 15, 30 and 60 μM) or NOC15 (0, 0.25, 0.5, 1, 2 and 4 μM) were added into the culture media in the wells. After 24 hours of incubation, the cell viability of NHL and Jurkat T cells was measured by cell counting kit-8 (CCK-8, Sigma). The half maximal inhibitory concentrations (IC50) of norcantharidin and NOC15 on Jurkat T cells and NHL cells were calculated.
In this example, a model of phorbol 12-myristate 13-acetate plus ionomycin (PMAI) activated leukemia Jurkat T cells model was employed to investigate the effects of the NOC15 on human leukemia cells (Jurkat T cells) and human lymphoblast cells (NHL).

Jurkat T cells = assay: Cell cycle distribution by flow cytometry, Jurkat T cells; type: cell-based, human; settings: for percentage of cells in subG1 phase: FIG. 5, FIG. 7
Protocol: as §4
Cell cycle distribution was determined by flow cytometry as described in the “Materials and Methods” section. Results is depicted in FIG. 5.
In this example, Jurkat T cells were treated with or without NC15 (2.513 μM) for 24 or 48 hours before being subject to cell cycle analysis. Results are depicted in FIG. 7.

L1210 cells [2] = assay: Syngeneic L1210 tumor in vivo therapy; design: species or system DBA/2 mice
Protocol: The DBA/2 mice (about 7 weeks old, 18-22 g) were obtained from BioLASCO Taiwan Co., Ltd. All mice were housed in specific pathogen-free condition with ad libitum access to water and laboratory chow. A solution of L1210 cells was injected into the subcutaneous tissue to establish a syngeneic tumor. Alternatively, the L1210 cells was injected peritoneally. All animal experiments were performed in accordance with the guidelines of the Animal Welfare Committee of Taipei Veterans General Hospital (Taiwan, R.O.C.).
To inoculate tumor, L1210 cells (1×10^6 cells per injection) were injected either subcutaneously or intraperitoneally to lab animals to generate tumors on day 1. After 7 days, NOC15 or NC15 (diluted in normal saline) was administered intra-peritoneally at a dose of 18 mg/kg every day for 7 days. The average body weight (BW) of the animals was measured daily.
After treatment, mice were sacrificed, and their tumors, livers and spleens were harvested and weighted, respectively; and white blood cells (WBC) counts were also measured.
Mice were inoculated with L1210 tumor cells in accordance with the procedures described in the section of “Materials and Methods.” For in vivo therapy, animals were given 18 mg/Kg NOC15 or NC15 by intra-peritoneal route, for a period of at least 7 days. Tumor size, animal body weight, respective weights of liver and spleen, as well as the white blood cell count of each animal were then measured respectively at the indicated time. Results are depicted in FIGS. 8 to 11, respectively.

L1210 cells [3] = assay: Ex vivo growth of leukemia cells (L1210); type: cell-based, mouse; settings: read-out: concentration suppressing ex vivo growth of L1210 cells for about 50%

**Q.** Which results are given for `CC(C)=CCCC(C)=CCCC(C)=CCN1C(=O)C2C3CCC(O3)C2C1=O` (centres unmarked) [Compound 18, N-farnesyl-7-oxabicyclo[2.2.1]heptane-2,3-dicarboximide]?
**A.** IC50 (BFTC905): 9.3 ± 0.6 µM; IC50 (HL60; Homo sapiens, HL-60, MTT, 48 hours, Mean ± SD, read-out: Growth Inhibition IC50 HL-60): 79.8 ± 1.1 µM; response of leukemia cell line HL60 to treatment (HL60; in words, from Table 1): did respond; fraction of apoptotic cells (subG1) (HepG2 cells; 10 μM): 3.7%; fraction of apoptotic cells (subG1) (HepG2 cells; 60 μM): 19.8%; accumulation of cells in G2/M phase (HepG2 cells; 10-60 μM): inducing the accumulation of cells in G2/M phase; cytotoxicity to leukemia Jurkat T cells [1]: toxic; number of cells in G0/G1 phase (Jurkat T cells; 2.513 μM, 48 hours, vs control, FIG. 7D): decreased; percentage of cells in subG1 phase (Jurkat T cells; treated 24 hours (NC15 2.513 μM)): started to increase; percentage of cells in subG1 phase (Jurkat T cells; treated 48 hours (NC15 2.513 μM)): reached a significant level; weight of liver (L1210 cells [2]; IP-inoculated tumor, 18 mg/kg i.p., FIG. 9B): improved significantly; weight of spleen (L1210 cells [2]; IP-inoculated tumor, 18 mg/kg i.p., FIG. 9C): improved significantly; increase in life span (L1210 cells [2]; SC-inoculated tumors, 18 mg/kg i.p. daily, FIG. 8A): about 40%; weight of s.c. tumor (L1210 cells [2]; SC-inoculated, 18 mg/kg i.p., FIG. 9A): Significant reduction; white blood cell (WBC) counts (L1210 cells [2]; day 14, SC- or IP-injected L1210, 18 mg/kg i.p., FIG. 10): significant reductions; IC50 (L1210 cells [3]; L1210, time not given, listed as NC15): ~2.6 µM; IC50 (L1210 cells [3]; Mus musculus, L1210, L1210, time not given): ~1.6 µM
